{"source": "paper PMC10609944", "about": "“Development of a Dosage form for a Photoswitchable Local Anesthetic Ethercaine” (Pharmaceuticals, 2023)", "key": {"[1]": {"tested_on": "rabbit eye cornea", "set-up": "method as in PMID 35628162", "settings": "n = 8, cited from earlier work"}, "[2]": {"set-up": "method as in PMID 35628162", "settings": "in 4% Kolliphor ELP; cited from earlier work"}, "[3]": {"test": "Solubilization of ethercaine: maximum solubility", "assay_type": "physicochemical", "source_text": "Since ETH itself, as a free base, is virtually insoluble in water and only partially soluble in 4% solution of Kolliphor ELP, at the first stage it was decided to study the effects of increasing the concentration of Kolliphor ELP and replacing it with Pluronic F127. Pluronic F127 is also an FDA-approved solubilizer of a different nature to the Kolliphor ELP, so it was selected as an alternative solubilizer for the study. Both substances are surfactants capable of forming direct micelles in aqueous solutions for loading hydrophobic compounds that are sparingly soluble in water. We chose a 4% concentration of Kolliphor ELP as the initial concentration that is suitable for the solubilization of hydrophobic dyes but is safe for clinical use, including for intravenous administration. In the case of other administration routes, for example, for ophthalmic use, this concentration can be increased. For further studies, we chose a 10% concentration of Kolliphor ELP. Despite an almost two-fold increase in the maximum solubility of ETH (Table 1) with an increase in the concentration of Kolliphor ELP from 4% to 10%, data on biological activity indicated an unstable and undulating local anesthetic effect on the cornea of the rabbit eye according to the Regnier method, which appeared to be due to the delayed drug release at high surfactant concentrations.\nAt the next stage of the solubility study, micelle-forming solubilizers and an anesthetic in the form of the ETH·HCl salt were used.\nA solution of 4-(2-(N-morpholino)-ethoxy)-azobenzene hydrochloride (2) (50.0 mg) in dichloromethane (2 mL) was added dropwise to a freshly prepared 4% aqueous solution of solubilizer (Kolliphor® ELP or Pluronic F127) (5 mL) heated to 45 °C with continuous argon bubbling. Bubbling was continued until strong foaming started. A clear orange solution with a concentration of 1.0% was obtained, which was subsequently filtered in turn through 0.45 µm PTFE filter and then through 0.22 µm PTFE filter."}, "[4]": {"test": "Spectrophotometric determination of Z→E half-transformation time (t1/2) in solutions", "assay_type": "physicochemical", "settings": "after 365 nm irradiation, thermal back Z→E, room temperature", "protocol": "This parameter depends on a number of conditions, including the solvent; therefore, at the next stage, the effect of the solubilizer on the t1/2 value was examined. The study was carried out by a standard method using UV/Vis spectrophotometry. At the beginning of the experiment, the spectrum of the initial photostationary state (PSS) with predominance of the E-form was recorded, after which the solution was irradiated with UV light (λ = 365 nm) and the spectrum of the resulting PSS, with predominance of the Z-form, was recorded.\nNext, the rate of reverse isomerization was monitored by measuring the absorption intensity at 5 min intervals. […]\nUV/Vis spectroscopy was used for the time determination of Z-isomers’ half-lifes. […] Then, lnAt/A0 values were calculated using Equation (1):(1) lnAt/A0=lnAbsPSS(dark)−Abstime/AbsPSS(dark)−AbsPSS(365nm), where AbsPSS(dark) , AbsPSS(365nm), and Abstime are absorbance values at λmax(E) in the dark at the beginning of the experiment, after UV light (λ = 365 nm) irradiation and at different time points from 0 to 60 min, respectively. Then, a graph was plotted depending on the lnAt/A0 values from the time, a trend line was calculated and a first-order rate constant (k) for the thermal back Z–E isomerization reaction was obtained as the slope of the trend line. […]"}, "[5]": {"tested_on": "rabbit eye cornea", "test": "Local anesthetic activity, surface anesthesia on rabbit eye cornea, Regnier method", "settings": "solutions irradiated with UV light λ = 365 nm vs dark", "from_the_text": "The essence of the method is to estimate the number of eye closures during the tactile exposure of the cornea of a rabbit’s eye. According to the method, four animals (eight experimental points) were selected for each group, except two groups with a negative control. For the latter two animals (four experimental points) were used due to the lack of the activity and to minimize the number of animals in the experiment. The animals were randomly divided into four experimental (1% ETH·HCl in 4% Kolliphor ELP or in 4% Pluronic F127, two modes with and without UV irradiation) and four control groups (4% Kolliphor ELP or 4% Pluronic F127, two modes with and without UV irradiation).\nFor determination of the sensitivity of rabbit eye cornea using the surface anesthesia method, a total of four rabbits with a basic sensitivity threshold of 1–2 touches were selected. […]\nBefore the experiment began, the animal was restrained, leaving only its head free. The eyelashes were cut and the sensitivity threshold was determined for each eye. […] After that, the sensitivity threshold of the eye cornea to tactile impact was determined. […] Each time, tactile stimulation of the same strength and rhythm was applied to the cornea and the minimum number of touches causing the eyelids to close (but no more than 100 touches and no longer than for 1 min) was recorded."}, "[6]": {"settings": "aqueous micellar solution of Kolliphor ELP, aqueous with cosolvent or surfactant or cyclodextrin, 4% micellar solution of Kolliphor ELP, read-out: Maximum Solubility of Ethercaine"}, "[7]": {"settings": "aqueous micellar solution of Pluronic F127, aqueous with cosolvent or surfactant or cyclodextrin, 4% micellar solution of Pluronic F127, read-out: Maximum Solubility of Ethercaine"}, "[8]": {"settings": "water without excipients, water, no excipients, read-out: Maximum Solubility of Ethercaine"}}, "note": "Counter-ions that a name gives are not always drawn. Like-named read-outs stand apart in the source and are kept apart here. Marks after values point to notes of the source that are not given here."}
{"smiles": "CCN(CC)CC(=O)Nc1c(C)cccc1C", "note": "[2% lidocaine hydrochloride, lidocaine hydrochloride]", "values": [{"measurement": "Regnier Index (Min—13, Max—1300)", "setting": "[1]; Dark", "result": "451 ± 40 (n = 8) ^a"}, {"measurement": "Regnier Index (Min—13, Max—1300)", "setting": "[1]; UV λ = 365 nm", "result": "469 ± 37 (n = 8) ^a"}]}
{"smiles": "c1ccc(N=Nc2ccc(OCCN3CCOCC3)cc2)cc1", "note": "[ETH, 4-(2-(N-Morpholino)-ethoxy)-azobenzene]", "values": [{"measurement": "maximum concentration such that the solution remained stable", "setting": "[2]", "result": 0.6, "unit": "wt.%"}, {"measurement": "solubility", "setting": "[3]; [6]", "result": 6000, "unit": "µg/mL"}, {"measurement": "solubility", "setting": "[3]; aqueous micellar solution of Kolliphor ELP, aqueous with cosolvent or surfactant or cyclodextrin, 10% micellar solution of Kolliphor ELP, read-out: Maximum Solubility of Ethercaine", "result": 10000, "unit": "µg/mL"}, {"measurement": "solubility", "setting": "[3]; [7]", "result": 7000, "unit": "µg/mL"}, {"measurement": "solubility", "setting": "[3]; before development of the dosage form", "result": 0.6, "unit": "%"}, {"measurement": "solubility of the anesthetic in water", "setting": "[3]; before the hydrochloride micellar dosage forms", "result": 0.6, "unit": "wt.%"}, {"measurement": "solubility", "setting": "[3]; developed dosage form", "result": "≥ 2", "unit": "%"}, {"measurement": "solubility of the anesthetic in water", "setting": "[3]; dosage forms based on micellar solutions of Kolliphor ELP and Pluronic F127", "result": "≥ 2", "unit": "wt.%"}, {"measurement": "solubility", "setting": "[3]; [8]", "result": "< 1000", "unit": "µg/mL"}]}
{"smiles": "c1ccc(/N=N/c2ccc(OCCN3CCOCC3)cc2)cc1", "note": "[ETH·HCl, 4-(2-(N-Morpholino)-Ethoxy)-Azobenzene Hydrochloride]", "values": [{"measurement": "Half-Transformation Time (t1/2)", "setting": "[4]; 4% micellar solution of Kolliphor ELP", "result": 0.85, "unit": "h"}, {"measurement": "Half-Transformation Time (t1/2)", "setting": "[4]; 4% micellar solution of Pluronic F127", "result": 1.15, "unit": "h"}, {"measurement": "solubility", "setting": "[3]; aqueous micellar solution of Kolliphor ELP, 4% micellar solution of Kolliphor ELP, read-out: Maximum Solubility of Ethercaine", "result": "≥ 20000", "unit": "µg/mL"}, {"measurement": "solubility", "setting": "[3]; [6]", "result": "> 20000", "unit": "µg/mL"}, {"measurement": "solubility", "setting": "[3]; aqueous micellar solution of Pluronic F127, 4% micellar solution of Pluronic F127, read-out: Maximum Solubility of Ethercaine", "result": "≥ 20000", "unit": "µg/mL"}, {"measurement": "solubility", "setting": "[3]; [7]", "result": "> 20000", "unit": "µg/mL"}, {"measurement": "solubility", "setting": "[3]; [8]", "result": 6000, "unit": "µg/mL"}, {"measurement": "decrease in the local anesthetic effect on UV irradiation (factor)", "setting": "[5]", "result": "16–20"}]}
